Laboratory results from US8722338B2, “Modulation of ABCG2-mediated urate transport to treat hyperuricemia and gout” (The Johns Hopkins University, priority 2009, dated 2014).
“Also recorded” adds a separate entry of the source.

Experiments:
[1] = target: human ABCG2 (Homo sapiens, UniProt Q9UNQ0); details: 5 μM FTC; oocytes injected with ABCG2 WT mRNA; C-14 urate
Protocol: Oocytes were removed from female pigmented Xenopus laevis (Xenopus 1 Inc.) and de-folliculated using collagenase A (Roche) in Ca^2+-free OR-2 ringer solution. Stage V-VI oocytes were selected and injected (Nanoinject II, Drummond Scientific) with 50 nL of either mRNA or H2O (as a control). All experiments were performed on the fourth day after injection. Oocytes after injection were cultured in a modified L-15 media (OR-3) and kept at 15-20° C. mRNA was prepared using the SP6 mMessage mMachine (Ambion Inc.) according to the manufactures protocol.
Radiolabeled C-14 uric acid (American Radio-labeled Chemicals) was dissolved in a stock solution of 2 mM NaOH with a final urate concentration of 2 mM (either 2 mM hot-radio labeled urate or 1 mM hot and 1 mM cold urate). For oocyte transport experiments, the radio labeled C-14 urate was included at various concentrations in ND96 ringers solution (in mM: 96 NaCl, 2 KCl, 2 MgCl2, 5 Hepes, 1.8 CaCl2, pH 7.5, and 5 mM glucose for overnight incubation experiments).
For accumulation studies, oocytes were incubated either for 1 or 2 h at room temperature in 50 μM C-14 urate or overnight in 500 μM C-14 urate at 15° C. After incubation the oocytes were washed in ice-cold ND96 solution 3-5 times to remove any superficial, residual C-14 urate from the oocytes. Oocytes were then pooled for scintillation counting. […]

[2] = target: T1, endogenous ABCG2 (Sus scrofa, UniProt Q8MIB3); assay: Urate accumulation in native LLC-PK1 renal proximal tubule cells; format: cell-based, porcine; details: 5 μM FTC; 120 min; polarized LLC-PK1 cells; 500 μM cold urate and 25 μM hot urate
T1 construct: endogenous in cells; host or cells: LLC-PK1 porcine renal epithelial cells
T1 sequence (Q8MIB3 1-656): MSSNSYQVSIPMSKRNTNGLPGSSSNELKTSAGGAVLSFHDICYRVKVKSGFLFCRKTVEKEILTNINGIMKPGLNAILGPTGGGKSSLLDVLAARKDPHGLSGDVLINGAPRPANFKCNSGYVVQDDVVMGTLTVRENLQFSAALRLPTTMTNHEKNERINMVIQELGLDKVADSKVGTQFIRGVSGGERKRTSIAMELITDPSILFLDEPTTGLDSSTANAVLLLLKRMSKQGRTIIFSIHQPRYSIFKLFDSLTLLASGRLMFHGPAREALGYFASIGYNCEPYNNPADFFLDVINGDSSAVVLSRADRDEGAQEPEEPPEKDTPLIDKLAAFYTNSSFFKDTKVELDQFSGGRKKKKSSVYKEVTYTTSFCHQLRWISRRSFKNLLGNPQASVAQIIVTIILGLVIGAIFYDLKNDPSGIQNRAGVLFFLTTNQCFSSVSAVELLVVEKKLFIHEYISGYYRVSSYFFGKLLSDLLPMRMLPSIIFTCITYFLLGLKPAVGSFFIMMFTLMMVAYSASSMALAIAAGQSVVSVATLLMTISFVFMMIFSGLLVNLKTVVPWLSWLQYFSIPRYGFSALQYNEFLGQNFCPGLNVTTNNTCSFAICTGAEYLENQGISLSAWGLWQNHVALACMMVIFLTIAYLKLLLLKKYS
Protocol: LLC-PK1 porcine renal epithelial cells were cultured in Dulbecco's Modified Eagle medium (DMEM) supplemented with 10% FBS. LLC-PK1 cells were seeded at a high density into a 6-well plate and accumulation experiments were performed after the cells polarized. The cells were incubated in DMEM containing 500 μM cold urate and 25 μM hot urate with or without 5 μM FTC (US Biologicals); the incubation lasted 120 min. The cells were then washed four times with ice-cold DMEM and lysed with 500 μL of 1M NaOH. The lysate was collected and placed in a scintillation tubule along with 5 mL scintillation fluid and counted.

human ABCG2, sequence (Q9UNQ0 whole entry): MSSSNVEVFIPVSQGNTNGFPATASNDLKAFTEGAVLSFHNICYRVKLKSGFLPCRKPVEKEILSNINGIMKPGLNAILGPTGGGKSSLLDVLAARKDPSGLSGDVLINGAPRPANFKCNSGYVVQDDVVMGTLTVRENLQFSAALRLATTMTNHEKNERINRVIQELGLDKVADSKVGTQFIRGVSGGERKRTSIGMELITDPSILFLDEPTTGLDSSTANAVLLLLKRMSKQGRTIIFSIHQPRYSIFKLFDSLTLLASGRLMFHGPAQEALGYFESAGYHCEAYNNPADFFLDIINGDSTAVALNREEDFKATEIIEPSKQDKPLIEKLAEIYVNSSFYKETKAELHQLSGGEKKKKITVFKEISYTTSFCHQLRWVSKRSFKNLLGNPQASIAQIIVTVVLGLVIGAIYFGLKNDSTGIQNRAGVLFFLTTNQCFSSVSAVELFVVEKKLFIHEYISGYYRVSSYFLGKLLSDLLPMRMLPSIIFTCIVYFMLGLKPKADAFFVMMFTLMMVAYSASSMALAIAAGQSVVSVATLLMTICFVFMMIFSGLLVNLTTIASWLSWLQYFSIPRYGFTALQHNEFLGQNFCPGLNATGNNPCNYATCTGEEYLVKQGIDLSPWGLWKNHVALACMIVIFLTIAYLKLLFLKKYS

SMILES: COc1ccc2c3c([nH]c2c1)[C@H](C=C(C)C)N1C(=O)[C@@H]2CCCN2C(=O)[C@@H]1C3 [FTC, fumitremorgin C]
- reduced urate accumulation in ABCG2-expressing oocytes in the presence of inhibitor [1]: absent
- urate export / intracellular urate accumulation compared with non-treated control cells [2]: inhibits urate export; also recorded: significantly higher intracellular urate accumulation
